Source: ChEMBL document CHEMBL1201862, “PubChem BioAssay data set” (2004)
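Cells were grown in 96-well plates and exposed to each compound for 48 hours at five concentrations; endpoints were interpolated linearly between bracketing concentrations, or set to the highest concentration if not reached. Here, GI50 denotes the concentration required for 50% inhibition of growth.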 Active and inactive are the calls of the source. No stated cut-off is given here; in the data, active = GI50 up to about 1.1 µM and inactive = higher.

What was measured:
Assay in all cases: DTP human tumour cell line panel, 48 h
[1] = tested on: HL-60
[2] = tested on: SK-OV-3
[3] = tested on: OVCAR-3
[4] = tested on: SW-620
[5] = tested on: MCF7
[6] = tested on: MDA-MB-435
[7] = tested on: TK-10
[8] = tested on: PC-3
[9] = tested on: K562
[10] = tested on: RPMI-8226
[11] = tested on: A549
[12] = tested on: RXF 393
[13] = tested on: LOX IMVI
[14] = tested on: KM12
[15] = tested on: HOP-62
[16] = tested on: COLO 205
[17] = tested on: HCC 2998
[18] = tested on: UACC-257
[19] = tested on: NCI-H522
[20] = tested on: HCT-116
[21] = tested on: SK-MEL-28
[22] = tested on: NCI/ADR-RES
[23] = tested on: T47D
[24] = tested on: SNB-19
[25] = tested on: A498
[26] = tested on: IGROV-1
[27] = tested on: MOLT-4
[28] = tested on: OVCAR-8
[29] = tested on: SF-539
[30] = tested on: SK-MEL-5
[31] = tested on: HCT-15
[32] = tested on: NCI-H23
[33] = tested on: ACHN
[34] = tested on: SN12C
[35] = tested on: OVCAR-5
[36] = tested on: SF-268
[37] = tested on: SK-MEL-2
[38] = tested on: M14
[39] = tested on: SF-295
[40] = tested on: UACC-62
[41] = tested on: NCI-H460
[42] = tested on: MDA-MB-231
[43] = tested on: HT-29
[44] = tested on: SNB-75
[45] = tested on: HOP-92
[46] = tested on: 786-0
[47] = tested on: SR
[48] = tested on: U-251
[49] = tested on: BT-549
[50] = tested on: Malme-3M
[51] = tested on: MDA-N
[52] = tested on: DU-145
[53] = tested on: EKVX
[54] = tested on: CCRF-CEM
[55] = tested on: UO-31
[56] = tested on: Hs-578T
[57] = tested on: CAKI-1
[58] = tested on: OVCAR-4
[59] = tested on: NCI-H226

Measured: GI50

Cc1nc2sccn2c1/C=C1/C(=O)Nc2cccc(Cl)c21
47.2 µM: [31]
inactive: [1] 52.7 µM | [2] > 100 µM | [3] > 100 µM | [4] 41.4 µM | [5] 23 µM | [6] 11.6 µM | [7] > 100 µM | [8] 80.7 µM | [9] 45.3 µM | [10] > 100 µM | [11] > 100 µM | [12] > 100 µM | [13] > 100 µM | [14] 38.3 µM | [15] > 100 µM | [16] 71.4 µM | [17] > 100 µM | [18] > 100 µM | [19] 45.8 µM | [20] 89.9 µM | [21] > 100 µM | [22] 34.2 µM | [23] 38.6 µM | [24] > 100 µM | [25] 87.3 µM | [26] 53.6 µM | [27] > 100 µM | [28] > 100 µM | [29] > 100 µM | [30] 45.7 µM | [32] > 100 µM | [33] > 100 µM | [34] > 100 µM | [35] 73.5 µM | [36] > 100 µM | [37] > 100 µM | [38] > 100 µM | [39] 51.6 µM | [40] > 100 µM | [41] 92 µM | [42] 50.4 µM | [43] 56.2 µM | [44] > 100 µM | [45] > 100 µM | [46] > 100 µM | [47] 61.9 µM | [48] > 100 µM | [49] > 100 µM | [50] > 100 µM | [51] 12.6 µM | [52] > 100 µM | [53] 79.6 µM | [54] > 100 µM | [55] > 100 µM | [56] > 100 µM | [57] > 100 µM

CC1=NC(=Cc2ccccc2O)C(=O)N1n1c(-c2ccccc2)nc2ccccc2c1=O
inactive: [1] 35.6 µM | [2] 33.3 µM | [3] 26.7 µM | [4] 49.1 µM | [5] 25.6 µM | [6] 46.9 µM | [7] 39.4 µM | [8] 30.3 µM | [9] 30.5 µM | [10] 48.5 µM | [11] 35.1 µM | [12] 31 µM | [13] 33 µM | [14] 67 µM | [15] 55.1 µM | [16] 34.5 µM | [17] 38.1 µM | [18] 41.9 µM | [19] 62.8 µM | [20] 26.5 µM | [21] 36.9 µM | [22] 33.3 µM | [23] 21.5 µM | [24] 65.5 µM | [25] 62.8 µM | [26] 32.1 µM | [27] 20.6 µM | [28] 33.7 µM | [29] 26.7 µM | [30] 23.8 µM | [32] 32.8 µM | [33] 29.7 µM | [34] 39.9 µM | [35] 40.5 µM | [36] 33.7 µM | [58] 27.5 µM | [38] 61.1 µM | [39] 37.3 µM | [40] 14.3 µM | [41] 30.3 µM | [42] 33.2 µM | [43] 32.4 µM | [44] 34.1 µM | [45] 31.9 µM | [46] 45.5 µM | [47] 32.5 µM | [59] 51.1 µM | [48] 38.4 µM | [49] 57.7 µM | [50] 80.5 µM | [51] 41.3 µM | [52] 29.1 µM | [53] 34.9 µM | [54] 26.6 µM | [55] 32.9 µM | [56] 51.1 µM
39.4 µM: [31]
